Marks after values point to notes of the source that are not given here.
How the values were obtained:
male Wistar rats [1] = experiment: Amount of intestinal fluid and chloride ion concentration in intestinal fluid in rat; assay type: in vivo; details: 30 minutes after administration, Mean ± S.E.
Description: Test substance 1: 13,14-dihydro-15-keto-16,16-difluoro-prostaglandin E1, which is a ClC-2 channel opener was used. The test substance 1 of 10 or 100 μg/kg in 5 mL/kg of the vehicle was orally administered to male Wistar rats (six weeks old, weight: 180-210 g) that had been fasted for at least 16 hours. The control group received the same volume of the vehicle (0.5% ethanol and 0.01% polysorbate 80 in distilled water). Thirty minutes after the administration, the animals underwent laparotomy under ether anesthesia. The first portion of the duodenum and end portion of the ileum were ligated respectively and the bowel was removed. The intestinal fluid of each animal was collected from the removed bowel and the amount was determined. After the intestinal fluid was centrifuged by 10,000×g for 5 minutes, its supernatant was collected. The chloride ion concentration in the supernatant was measured with a chloride counter (CL-7, Hiranuma Sangyo Co., Ltd.). Dunnett's test was used in comparing the control group and the test groups receiving test substance 1 in each dose. P values less than 0.05 were considered to be statistically significant.

male Wistar rats [2] = experiment: Indomethacin induced ulcer model; assay type: in vivo, rat; details: for Ulcer Coefficient: Mean ± S.E.
Description: (§1) Effects on acute ulcer was determined by means of water-immersion restraint stress induced ulcer model and indomethacin induced ulcer model.
(§2) Test substance 1 was orally administered to male Wistar rats (weight: 180-210 g) that had been fasted for 24 hours. In the water-immersion restraint stress induced ulcer model, 10 minutes after the oral administration of test substance 1, the rats were bound in a stress cage and immersed in water at 23° C. up to the level of their chest xiphisternums. Six hours after the immersion, the animals were killed by cervical dislocation. In the indomethacin induced ulcer model, immediately after the oral administration of test substance 1 or 2, indomethacin 10 mg/kg was orally administered. Five hours after the administration, the animals were killed by cervical dislocation. The stomachs removed from the animals were fixed with 1% formalin and then dissected along the greater curvatures. The major axis (mm) of each ulcer formed in the stomach was measured. The major axes of the ulcers in each animal were totaled, which were expressed as ulcer coefficients. Based on the ulcer coefficients of the control group and those of the groups receiving test substances, the ulcer inhibitory rates were calculated.

ddY male mice = experiment: Antianoxia effect: duration of gasping after beheading in mice; assay type: in vivo, mouse; details: 0.3 mg/kg subcutaneous, 30 minutes before beheading, Mean ± S.D.
Description: Test substance 1 of 0.3 mg/kg in 10 mL/kg of vehicle was subcutaneously administered to ddY male mice (5 weeks old, weight: 27-30 g). The control group received the vehicle. Thirty minutes after the administration, the mice were beheaded with guillotine. Duration of gasping shown after beheading was measured.

male Wistar rats [3] = experiment: Antipneumonedema effect, ammonium sulfate induced, in rats; assay type: in vivo, rat
Description: Test substance 1 of 0.1 or 0.01 mg/kg in 5 mL/kg of vehicle was subcutaneously administered to male Wistar rats (7 weeks old, weight: 200-250 g). The control group received the same amount of the vehicle (physiological Saline). Thirty minutes after the administration, ammonium sulfate […] was administered to the abdominal cavity of the rats. The survival rate at 30 minutes after the administration of ammonium sulfate was calculated. Animals that had survived until 30 minutes after the administration of ammonium sulfate were killed under chloroform, and their lungs were removed to measure the weights. Regarding animals that had been dead by 30 minutes after the administration of ammonium sulfate, their lungs were removed immediately after their death to measure the weights. The lung-weight of the respective groups was compared to the lung-weight of the normal group, which received no ammonium sulfate. Based on the lung-weight measurements, the inhibitory rate of lung-weight increase of the group receiving test substance 1 as compared to that of the control group was calculated.

male Wistar rats [4] = experiment: Water-immersion restraint stress induced ulcer model; assay type: in vivo, rat; details: for Ulcer Coefficient: Mean ± S.E.
Description: as §1, §2

male white rabbit = experiment: Amount of lacrimal fluid and chloride ion concentration in lacrimal fluid in rabbit; assay type: in vivo; details: 0.001% eye drop, 30 μL/eye, two hours after instillation, Mean ± S.E.
Description: An eye drop composition comprising 0.001% of the test substance 1 was instilled to male white rabbit in the amount of 30 μL/eye. The control group received the same amount of eye drop vehicle. […] Then the amount of lacrimal fluid was measured from the length of wetting area on the paper filter with the scale on it. […] The collected lacrimal fluid was diluted five fold with distilled water and chloride ion concentration in the lacrimal fluid was measured with a chloride counter (CL-7, Hiranuma Sangyo Co. Ltd., Japan). Student's t-test and Wilcoxon's test were used in comparing the control group and the group receiving test substance 1. P values less than 0.05 were considered to be statistically significant.

removed liver [5] = experiment: Bile amount and chloride ion in bile of removed perfused rat liver; details: 10 μM in Krebs-Ringer perfusate, 30 minutes, Mean ± S.E.
Description: Male Wistar rats were used. The common bile duct of both the test and the control groups were catheterized to collect bile under pentobarbital sodium anesthesia. After the catheter was inserted and fixed in the portal vein, Krebs-Ringer solution (pH 7.4, 37° C.) comprising sodium taurocolate (30 μmol/1) saturated with 95% O2 and 5% CO2 was infused at a constant flow rate of 4.0 mL/min/g liver weight by means of peristaltic pump. The liver was removed under perfusion. For the test group, test substance 2 was added to the Krebs-Ringer solution. Thirty minutes after the perfusion, the amount of bile of both the test group and the control group was measured. Chloride ion concentration in the bile was also measured. The amount of bile at 30 minutes after the administration of test substance 2 or vehicle was shown as relative value (%) to the amount immediately before the administration.

removed liver [6] = experiment: Organ preservation: bile flow after 16-hour cold storage and reperfusion of rat liver; details: 30 minutes after reperfusion, Mean ± S.D.
Description: Male Wistar rats (weight: about 280 g) were anesthetized with intraperitoneal injection of pentobarbital sodium (50 mg/kg) and hepatic-portal region was exposed by abdominal midline incision. The common bile duct was cannulated and the portal stem was inserted with a 19 gauge Surflo® needle equipped with a three way stopcock. […] The liver was cut off from the tissues around it, removed outside the body and subjected to extracorporeal perfusion. The liver was subjected to a 15-minute pre-perfusion until its oxygen consumption achieved to a constant state. Then the perfusate was replaced with an organ preservative solution (University of Wisconsin solution; (U-W solution) at 4° C. Immediately after the replacement was completed, the liver connected with the three-way stopcock was removed from the perfusion cycle and the inlet was clamped. Then the liver was put in the preservative solution (U-W solution) at the same temperature and stored for 16 hours. After the 16-hour storage, the liver was reperfused with Krebs-Ringer Buffer. Thirty minutes after the reperfusion, the amount of bile flow was measured. (1) Effect of substance 2 added to the organ preservative solution (U-W solution) In the above perfusion protocol, test substance 2 at the concentration of 10 μM was added to the preservative solution (U-W solution). […]

Beagle dogs = experiment: Cardiac output in dog model of cardiac incompetence; assay type: in vivo; details: 30 minutes after administration relative to immediately before, Mean ± S.E.
Description: Beagle dogs (weight: 8.8-10.3 kg) were used, and under thiopental sodium and α-chloralose anesthesia, their cardiac output was guided from a FJ probe equipped on the aortic arch via a rectangular wave electromagnetic blood flow meter (MFV-3100, Nihon Koden) to a blood flow-indicating unit and recorded in a recorder. The model of cardiac incompetence was prepared in accordance with the following method. A continuous infusion of lactate Ringer solution (5 mL/body/min) having dissolved therein DL-propranolol (0.06 mg/mL) from a catheter inserted into the left femoral vein started diastolic overload. Thirty minutes later, the left anterior descendence (LAD) was ligated. […] At the time the cardiac output was reduced by at least 20% from that before the diastolic overload, the dose of methoxamine was reduced to 5 μg/kg/min and the infusion of lactate Ringer solution was reduced to 3 mL/kg/min, which was continued until the completion of experiments. Sixty to 90 minutes after the cardiac output was reduced by at least 20% and other hemodynamic parameters were stabled, test substance 2 was administered via a cannula indwelled in the duodenum. The control group received a vehicle. […]

male Wistar rats [7] = experiment: Amount of bile and chloride ion concentration in bile in rats after repeated oral dosing; assay type: in vivo, rat; details: 100 μg/kg oral three times a day for seven days, Mean ± S.E.
Description: Test substance 2: 13,14-dihydro-15-keto-16,16-difluoro-18(S)-methyl-prostaglandin E1, which is a ClC-2 channel opener was used. Test substance 2 of 100 μg/kg was orally administered to male Wistar rats (six weeks old, weight: 180-210 g) three times a day for seven days. The control group received the same amount of the vehicle (0.01% polysorbate 80 and 0.5% ethanol in distilled water). In the following morning of the final administration day (about 17 hours after the final administration), a polyethylene catheter (PE10, Becton Dickinson and Company) was inserted into the rats' common bile duct under ether anesthesia. The rats were placed in a Borrmann's cage and were left for 1 hour to awake from anesthesia. Bile discharged during one hour from one to two hours after the insertion of the catheter was collected to measure the amount of bile. Chloride ion concentration was measured with a chloride counter (CL-7, Hiranuma Sangyo Co., Ltd.). Student's t-test was used in comparing the control group and the group receiving test substance 2. P values less than 0.05 were considered to be statistically significant.

male Wistar rats [8] = experiment: Mercuric chloride induced large intestinal ulcer; assay type: in vivo, rat; details: for Gross Ulcer Area: 30 min before and 2 and 6 hours after HgCl2, Mean ± S.E.
Description: Mercuric chloride (HgCl2) of 4 mg/kg was intramuscularly administered to male Wistar rats (weight: 245-290 g) to induce ulcer in the large intestine. Thirty minutes before, and 2 and 6 hours after the administration of HgCl2, test substance 2 was subcutaneously administered. The control group received a vehicle. Twenty-four hours after the administration of HgCl2, the animals were bled to death under ether anesthesia. After abdominal incision, the upper portion of the ileocecal opening and the upper portion of the anus were ligated, and the large intestine region from the caecum to the rectum was removed. The removed large intestine was fixed with 1% formalin and then dissected, and the major and minor axes of ulcer were measured with a caliper under a stereoscopic microscope. The product of the major axis multiplied by the minor axis was expressed as the ulcer area. Further, the total ulcer area was calculated in each animal, which was expressed as the gross ulcer area.

male Wistar rats [9] = experiment: Taurocholic acid and trypsin induced pancreatitis, serum amylase; assay type: in vivo, rat; details: 100 μg/kg subcutaneous
Description: Male Wistar rats (weight: 240-270 g) that had been fasted overnight were subjected to abdominal incision under pentobarbital sodium anesthesia. Then a mixed solution of 10% taurocholic acid 3 mL and 0.3% trypsin solution 0.3 mL was antidroicly infused from the bile duct duodenum opening to induce pancreatitis. Thirty minutes before, and 2 and 4 hours after the infusion of the mixed solution of taurocholic acid and trypsin, test substance 2 was subcutaneously administered. The control group received the vehicle. Six hours after the infusion of the mixed solution of taurocholic acid and trypsin, the blood was collected to measure the serum amylase activity.

## CCCCC(F)(F)C(=O)CC[C@H]1[C@H](O)CC(=O)[C@@H]1CCCCCCC(=O)O [Test Sub. 1, 13,14-dihydro-15-keto-16,16-difluoro-prostaglandin E1]
Male Wistar rats [1]; 10 μg/kg oral
  Amount of Intestinal Fluid: 3.3 ± 0.3 mL
  Chloride Ion Concentration in Intestinal Fluid: 110.1 ± 5.6 mEq/L
Male Wistar rats [1]; 100 μg/kg oral
  Amount of Intestinal Fluid: 5.3 ± 0.2 mL
  Chloride Ion Concentration in Intestinal Fluid: 126.6 ± 2.4 mEq/L
Male Wistar rats [2]; 2 μg/kg oral
  Ulcer Inhibitory Rate: 44%
  Ulcer Coefficient: 27.9 ± 5.1
ddY male mice
  Duration of Gasping: 24.1 ± 1.9
Male Wistar rats [3]; 0.01 mg/kg subcutaneous, compared to control group
  Inhibitory Rate of Lung-weight Increase: 47%
Male Wistar rats [3]; 0.1 mg/kg subcutaneous, 30 minutes after ammonium sulfate
  Surviving Rate: 60%
Male Wistar rats [4]; 30 μg/kg oral
  Ulcer Inhibitory Rate: 54.3%
  Ulcer Coefficient: 13.4 ± 2.0
Male Wistar rats [4]; 100 μg/kg oral
  Ulcer Inhibitory Rate: 85.3%
  Ulcer Coefficient: 4.3 ± 1.9
Male white rabbit
  Chloride Ion Concentration in Lacrimal Fluid: 152.9 ± 7.7^(##) mEq/L
Male white rabbit; Schirmer's Paper
  Amount of Lacrimal Fluid: 11.5 ± 0.7 mL

## CC[C@H](C)CC(F)(F)C(=O)CC[C@H]1[C@H](O)CC(=O)[C@@H]1CCCCCCC(=O)O [Test Sub. 2, 13,14-dihydro-15-keto-16,16-difluoro-18(S)-methyl-prostaglandin E1]
Removed liver [5]
  Chloride Ion Concentration in Bile: 0.353 ± 0.009 μM/min/g liver
Removed liver [5]; relative to amount immediately before administration
  Relative Amount of Bile: 126.2 ± 9.0 %
Removed liver [6]; 10 μM added to the perfusate during reperfusion
  Amount of Bile Flow: 2.67 ± 0.31 μL/min/g liver
Removed liver [6]; 10 μM added to the preservative solution (U-W solution)
  Amount of Bile Flow: 2.43 ± 0.10 μL/min/g liver
Beagle dogs; 100 μg/kg intraduodenal
  Relative Cardiac Output: 108.7 ± 0.47 %
Beagle dogs; 300 μg/kg intraduodenal
  Relative Cardiac Output: 117.8 ± 2.42 %
Male Wistar rats [2]; 1 μg/kg oral
  Ulcer Inhibitory Rate: 58.7%
  Ulcer Coefficient: 35.7 ± 8.3
Male Wistar rats [2]; 3 μg/kg oral
  Ulcer Inhibitory Rate: 65.3%
  Ulcer Coefficient: 30.0 ± 4.6
Male Wistar rats [2]; 10 μg/kg oral
  Ulcer Inhibitory Rate: 77.2%
  Ulcer Coefficient: 19.7 ± 4.8
Male Wistar rats [7]
  Chloride Ion Concentration in Bile: 98.4 ± 1.8 mEq/L
Male Wistar rats [7]; bile collected during one hour
  Amount of Bile: 492 ± 36.7 µL
Male Wistar rats [8]; 10 μg/kg subcutaneous
  Ulcer Inhibitory Rate: 54.3%
  Gross Ulcer Area: 15.2 ± 15.8 mm^2
Male Wistar rats [8]; 1000 μg/kg subcutaneous
  Ulcer Inhibitory Rate: 85.3%
  Gross Ulcer Area: 3.7 ± 8.3** mm^2
Male Wistar rats [9]; 30 min before and 2 and 4 hours after infusion, blood at six hours, Mean ± S.E.
  serum amylase: 2430 ± 417 IU/L
Male Wistar rats [9]; serum amylase
  Inhibitory Rate: 22.6%

Reference: US7732487B2, “Method for treating a disease or condition responsive to opening of C1C-2 channel” (priority 2001, dated 2010)
